From patent publication US20240158446A1, “CYCLIC COMPOUND HAVING SELECTIVE INHIBITORY ACTION ON KRAS OVER HRAS AND NRAS” (CHUGAI SEIYAKU KABUSHIKI KAISHA, priority 2021, published 2024)
pKd: −log10 of the molar value. Like-named read-outs stand apart in the source and are kept apart here. Where a SMILES comes first, the peptide text is derived from it. Bridges are numbered along the chain shown (N, C = ends). [ ]: non-standard residue; d: D form. The star is where a group is joined. hPhe(3-Cl-4-CF3) = N[C@@H](CCc1ccc(C(F)(F)F)c(Cl)c1)C(=O)O; NPrPhe(4-Me) = CCCN[C@@H](Cc1ccc(C)cc1)C(=O)O; NEtPhe(4-Me) = CCN[C@@H](Cc1ccc(C)cc1)C(=O)O; NMeGly(cPent) = CN[C@H](C(=O)O)C1CCCC1; Aze(3S-Me) = C[C@H]1CN[C@@H]1C(=O)O; NMeD = CN[C@@H](CC(=O)O)C(=O)O; NMeL = CN[C@@H](CC(C)C)C(=O)O; Morpholide = C1CN(*)CCO1; NMeA = CN[C@@H](C)C(=O)O; Ac5c = NC1(C(=O)O)CCCC1; NEtG = CCNCC(=O)O; Sar = CNCC(=O)O

What was measured:
[1] = target: GDP-bound HRAS wild-type protein (Homo sapiens, UniProt P01112); experiment: Binding to HRAS by surface plasmon resonance (SPR), Single Cycle Kinetics; settings: for HRAS/KRAS (ratio of KD value with respect to GDP-bound HRAS wild-type protein to KD value with respect to KRAS): SPR KD ratio HRAS/KRAS, class symbols
[2] = target: GDP-bound NRAS wild-type protein (Homo sapiens, UniProt P01111); experiment: Binding to NRAS by surface plasmon resonance (SPR), Single Cycle Kinetics; settings: for NRAS/KRAS (ratio of KD value with respect to GDP-bound NRAS wild-type protein to KD value with respect to KRAS): SPR KD ratio NRAS/KRAS, class symbols
[3] = target: GDP-bound KRAS wild-type protein (Homo sapiens, UniProt P01116); experiment: Binding to KRAS by surface plasmon resonance (SPR), Single Cycle Kinetics; settings: GDP-bound KRAS wild-type protein, read-out: KRAS KD
[4] = SPR Single Cycle Kinetics, 1:1 binding model
[5] = SPR, GDP-bound HRAS wild-type protein vs GDP-bound KRAS wild-type protein
[6] = SPR, GDP-bound NRAS wild-type protein vs GDP-bound KRAS wild-type protein

Sequence of GDP-bound KRAS wild-type protein (P01116 whole entry): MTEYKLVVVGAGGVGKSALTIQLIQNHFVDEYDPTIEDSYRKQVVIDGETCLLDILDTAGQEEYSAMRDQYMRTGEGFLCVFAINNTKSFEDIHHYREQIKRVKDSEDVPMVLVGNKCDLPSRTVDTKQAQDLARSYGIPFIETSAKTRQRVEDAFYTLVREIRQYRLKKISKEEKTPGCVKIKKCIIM
Sequence of GDP-bound HRAS wild-type protein (P01112 whole entry): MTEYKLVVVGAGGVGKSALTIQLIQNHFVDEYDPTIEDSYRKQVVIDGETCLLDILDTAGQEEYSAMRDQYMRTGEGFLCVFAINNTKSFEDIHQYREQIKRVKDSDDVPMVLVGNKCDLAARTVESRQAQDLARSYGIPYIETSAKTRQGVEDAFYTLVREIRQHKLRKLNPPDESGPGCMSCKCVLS
Sequence of GDP-bound NRAS wild-type protein (P01111 whole entry): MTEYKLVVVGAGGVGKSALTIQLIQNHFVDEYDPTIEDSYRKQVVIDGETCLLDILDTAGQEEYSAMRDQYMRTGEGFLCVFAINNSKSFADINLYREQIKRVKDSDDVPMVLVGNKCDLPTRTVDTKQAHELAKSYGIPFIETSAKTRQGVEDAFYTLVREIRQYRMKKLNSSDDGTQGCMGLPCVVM

Row | Compound | pKd [3, 4] | pKd ([3]; SPR, Single Cycle Kinetics) | HRAS/KRAS (ratio of KD value with respect to GDP-bound HRAS wild-type protein to KD value with respect to KRAS) [1] | NRAS/KRAS (ratio of KD value with respect to GDP-bound NRAS wild-type protein to KD value with respect to KRAS) [2] | HRAS/KRAS (ratio of KD value with respect to HRAS to KD value with respect to KRAS) [1, 5] | NRAS/KRAS (ratio of KD value with respect to NRAS to KD value with respect to KRAS) [2, 6] | HRAS/KRAS (ratio of KD value for HRAS to KD value for KRAS) [1, 5] | NRAS/KRAS (ratio of KD value for NRAS to KD value for KRAS) [2, 6]
1 | CC[C@H](C)[C@@H]1NC(=O)[C@H](CC(C)C)N(C)C(=O)C[C@@H](C(=O)N2CCOCC2)N(C)C(=O)[C@H](CC(F)(F)F)N(C)C(=O)C2(CCCC2)NC(=O)[C@@H]2CCCN2C(=O)[C@H](CCc2cc(F)c(C(F)(F)F)c(F)c2)NC(=O)CN(C)C(=O)[C@H](Cc2ccc(C(F)(F)F)cc2)N2CCCC[C@@H](C2=O)N(C)C(=O)CN(C)C1=O [PP0568] | 8.96 |  |  |  | B (a compound having 3 or more and less than 10 is denoted as B) | B (a compound having 3 or more and less than 10 is denoted as B) |  | 
2 | CC[C@H](C)[C@@H]1NC(=O)[C@H](CC(C)C)N(C)C(=O)C[C@@H](C(=O)N2CCOCC2)N(C)C(=O)[C@H](C2CCCC2)N(C)C(=O)C2(CCCC2)NC(=O)[C@@H]2CCCN2C(=O)[C@H](CCc2ccc(C(F)(F)F)c(Cl)c2)NC(=O)CN(CC)C(=O)[C@H](Cc2ccc(C)cc2)N(CC)C(=O)CN(CC)C(=O)CN(C)C1=O [PP0030] ([NMeL]I[Sar][NEtG][NEtPhe(4-Me)][NEtG][hPhe(3-Cl-4-CF3)]P[Ac5c][NMeGly(cPent)][NMeD]-Morpholide; lactam N-11) | 8.11 |  |  |  |  |  | C (A compound having a KD ratio of 0.1 or more and less than 3 is denoted as C) | C (A compound having a KD ratio of 0.1 or more and less than 3 is denoted as C)
3 | CCCN1C(=O)[C@@H]2[C@@H](C)CN2C(=O)[C@H](C)N(C)C(=O)[C@H]([C@@H](C)CC)NC(=O)[C@H](CC(C)C)N(C)C(=O)C[C@@H](C(=O)N2CCOCC2)N(C)C(=O)[C@H](C2CCCC2)N(C)C(=O)C2(CCCC2)NC(=O)[C@@H]2CCCN2C(=O)[C@H](CCc2ccc(C(F)(F)F)c(Cl)c2)NC(=O)CN(C)C(=O)[C@@H]1Cc1ccc(C)cc1 [PP0138] ([NMeL]I[NMeA][Aze(3S-Me)][NPrPhe(4-Me)][Sar][hPhe(3-Cl-4-CF3)]P[Ac5c][NMeGly(cPent)][NMeD]-Morpholide; lactam N-11) | 9.11 |  |  |  |  |  | C (A compound having a KD ratio of 0.1 or more and less than 3 is denoted as C) | C (A compound having a KD ratio of 0.1 or more and less than 3 is denoted as C)

Continued, in another order:

Row | pKd [3, 4] | pKd ([3]; SPR, Single Cycle Kinetics) | Compound | HRAS/KRAS (ratio of KD value with respect to GDP-bound HRAS wild-type protein to KD value with respect to KRAS) [1] | NRAS/KRAS (ratio of KD value with respect to GDP-bound NRAS wild-type protein to KD value with respect to KRAS) [2] | HRAS/KRAS (ratio of KD value with respect to HRAS to KD value with respect to KRAS) [1, 5] | NRAS/KRAS (ratio of KD value with respect to NRAS to KD value with respect to KRAS) [2, 6] | HRAS/KRAS (ratio of KD value for HRAS to KD value for KRAS) [1, 5] | NRAS/KRAS (ratio of KD value for NRAS to KD value for KRAS) [2, 6]
4 | 9.96 |  | CCO[C@@H]1C[C@H]2C(=O)NC3(CC(C)(C)C3)C(=O)N(C)[C@@H](C3CCCC3)C(=O)N(C)[C@H](C(=O)N3CCCC3)CC(=O)N(C)[C@H]3CCC/C=C/c4ccc(cc4)C[C@@H](C(=O)N(C)CC(=O)N[C@@H](CCc4cc(F)c(C(F)(F)F)c(F)c4)C(=O)N2C1)N1CC/C=C\C[C@@H](C1=O)N(C)C(=O)CN(C1CC1)C(=O)[C@H]([C@@H](C)CC)NC3=O [PP2583] | A (a compound having 10 or more and less than 20 is denoted as A) | A (a compound having 10 or more and less than 20 is denoted as A) |  |  |  | 
5 | 9.06 |  | CCO[C@@H]1C[C@H]2C(=O)NC3(CCC3)C(=O)N(C)[C@@H](C3CCCC3)C(=O)N(C)[C@H](C(=O)N(C)C)CC(=O)N(C)[C@@H](CC3CCCC3)C(=O)N[C@@H]([C@@H](C)CC)C(=O)N(C)CC(=O)N(C)[C@H]3C/C=C\CCN(C3=O)[C@@H](Cc3ccc(C)cc3)C(=O)N(C)CC(=O)N[C@@H](CCc3cc(C)c(C(F)F)c(F)c3)C(=O)N2C1 [PP2676] | A (a compound having 10 or more and less than 20 is denoted as A) | A (a compound having 10 or more and less than 20 is denoted as A) |  |  |  | 
6 |  | 10.33 | CCO[C@@H]1C[C@H]2C(=O)NC3(CCC3)C(=O)N(C)[C@@H](C3CCCC3)C(=O)N(C)[C@H](C(=O)N(C)C)CC(=O)N(C)[C@@H](CCC(=O)N(C)C)C(=O)N[C@@H]([C@@H](C)CC)C(=O)N(C)CC(=O)N(C)[C@H]3C/C=C\CCN(C3=O)[C@@H](Cc3ccc(C(F)(F)F)cc3)C(=O)N(C)CC(=O)N[C@@H](CCc3cc(F)c(C(F)(F)F)c(F)c3)C(=O)N2C1 [PP1122] |  |  |  |  | B (a compound having 3 or more and less than 10 is denoted as B) | A (a compound having 10 or more and less than 20 is denoted as A)
